Experimental data: ChEMBL document CHEMBL1158877, “Sesquiterpenoids of the drimane class from a sponge of the genus Dysidea” (J Nat Prod, 1997)
Active and inactive are the calls of the source. No cut-off for these calls is given here.

Tested on: Photobacterium leiognathi
Assay: Antimicrobial activity against Photobacterium leiognathi by bioluminescence
Assay type: functional, organism-based
Settings: not given
In the case of `CC(=O)O[C@@H]1OC(=O)C2=CC[C@H]3C(C)(C)CCC[C@]3(C)[C@H]21`, the Activity is reported as “inactive”.
For `CC(=O)O[C@@H]1OC(=O)C2=C1[C@@]1(C)CCCC(C)(C)[C@@H]1CC2`, the Activity was “inactive”.
In the case of `CC(=O)O[C@@H]1OC=C2CC[C@H]3C(C)(C)CCC[C@]3(C)[C@H]21`, the IC50 is reported as 90 µM.
In the case of `CC(=O)OC[C@H]1CC[C@H]2C(C)(C)CCC[C@]2(C)[C@H]1COC(C)=O`, the Activity is reported as “inactive”.
`CC(=O)OC[C@H]1[C@@H](OC(C)=O)CC[C@H]2C(C)(C)CCC[C@]12C` showed an IC50 of 90 µM.
Work on `CC1(C)CCC[C@]2(C)[C@@H](C=O)C(C=O)=CC[C@@H]12` [POLYGODIAL] yielded an IC50 of 11.4 µM.
With `CO[C@@H]1OC[C@H]2CC[C@H]3C(C)(C)CCC[C@]3(C)[C@H]21` the IC50 was 90 µM.
For `CC1(C)CCC[C@]2(C)/C(=C/O)C(=O)CC[C@@H]12`, the Activity was “inactive”.
For `CO[C@@H]1O[C@H](O)[C@@]2(O)CC[C@H]3C(C)(C)CCC[C@]3(C)[C@@H]12`, the Activity was “inactive”.
For `CC1(C)CCC[C@]2(C)[C@H]3C(=O)OC[C@@H]3CC[C@@H]12`, the IC50 was 90 µM.

Tested on: Photobacterium leiognathi
Assay: Antimicrobial activity against Photobacterium leiognathi at 10 ug/ml by paper disk method
Assay type: functional
Settings: not given
In the case of `CC(=O)O[C@@H]1OC(=O)C2=CC[C@H]3C(C)(C)CCC[C@]3(C)[C@H]21`, the Activity is reported as “inactive”.
With `CC(=O)O[C@@H]1OC(=O)C2=C1[C@@]1(C)CCCC(C)(C)[C@@H]1CC2` the Activity was “inactive”.
For `CC(=O)O[C@@H]1OC=C2CC[C@H]3C(C)(C)CCC[C@]3(C)[C@H]21`, the Activity was “inactive”.
For `CC(=O)OC[C@H]1CC[C@H]2C(C)(C)CCC[C@]2(C)[C@H]1COC(C)=O`, the Activity was “inactive”.
For `CC(=O)OC[C@H]1[C@@H](OC(C)=O)CC[C@H]2C(C)(C)CCC[C@]12C`, the Activity was “inactive”.
In the case of `CO[C@@H]1OC[C@H]2CC[C@H]3C(C)(C)CCC[C@]3(C)[C@H]21`, the Activity is reported as “inactive”.
With `CC1(C)CCC[C@]2(C)/C(=C/O)C(=O)CC[C@@H]12` the Activity was “inactive”.
In the case of `CO[C@@H]1O[C@H](O)[C@@]2(O)CC[C@H]3C(C)(C)CCC[C@]3(C)[C@@H]12`, the Activity is reported as “inactive”.
For `CC1(C)CCC[C@]2(C)[C@H]3C(=O)OC[C@@H]3CC[C@@H]12`, the Activity was “inactive”.

Same assay, conditions: read-out: IZ
Work on `CC1(C)CCC[C@]2(C)[C@@H](C=O)C(C=O)=CC[C@@H]12` [POLYGODIAL] yielded a zone of inhibition at 10 µg/mL of 8 mm.

Tested on: not listed separately
Assay: Inhibition of Na+/K+-ATPase
Settings: not given
In the case of `CC(=O)O[C@@H]1OC(=O)C2=CC[C@H]3C(C)(C)CCC[C@]3(C)[C@H]21`, the Activity is reported as “inactive”.
`CC(=O)O[C@@H]1OC(=O)C2=C1[C@@]1(C)CCCC(C)(C)[C@@H]1CC2` showed an IC50 of 98 µM.
For `CC(=O)O[C@@H]1OC=C2CC[C@H]3C(C)(C)CCC[C@]3(C)[C@H]21`, the Activity was “inactive”.
With `CC(=O)OC[C@H]1CC[C@H]2C(C)(C)CCC[C@]2(C)[C@H]1COC(C)=O` the Activity was “inactive”.
For `CC(=O)OC[C@H]1[C@@H](OC(C)=O)CC[C@H]2C(C)(C)CCC[C@]12C`, the Activity was “inactive”.
`CC1(C)CCC[C@]2(C)[C@@H](C=O)C(C=O)=CC[C@@H]12` [POLYGODIAL] gave an IC50 of 82 µM.
With `CO[C@@H]1OC[C@H]2CC[C@H]3C(C)(C)CCC[C@]3(C)[C@H]21` the Activity was “inactive”.
In the case of `CC1(C)CCC[C@]2(C)/C(=C/O)C(=O)CC[C@@H]12`, the Activity is reported as “inactive”.
In the case of `CO[C@@H]1O[C@H](O)[C@@]2(O)CC[C@H]3C(C)(C)CCC[C@]3(C)[C@@H]12`, the Activity is reported as “inactive”.
For `CC1(C)CCC[C@]2(C)[C@H]3C(=O)OC[C@@H]3CC[C@@H]12`, the IC50 was 45 µM.

Tested on: not listed separately
Assay: Inhibition of PLA2
Settings: not given
For `CC(=O)O[C@@H]1OC(=O)C2=CC[C@H]3C(C)(C)CCC[C@]3(C)[C@H]21`, the Activity was “inactive”.
In the case of `CC(=O)O[C@@H]1OC(=O)C2=C1[C@@]1(C)CCCC(C)(C)[C@@H]1CC2`, the Activity is reported as “inactive”.
For `CC(=O)O[C@@H]1OC=C2CC[C@H]3C(C)(C)CCC[C@]3(C)[C@H]21`, the Activity was “inactive”.
With `CC(=O)OC[C@H]1CC[C@H]2C(C)(C)CCC[C@]2(C)[C@H]1COC(C)=O` the Activity was “inactive”.
With `CC(=O)OC[C@H]1[C@@H](OC(C)=O)CC[C@H]2C(C)(C)CCC[C@]12C` the Activity was “inactive”.
For `CC1(C)CCC[C@]2(C)[C@@H](C=O)C(C=O)=CC[C@@H]12` [POLYGODIAL], the Activity was “inactive”.
With `CO[C@@H]1OC[C@H]2CC[C@H]3C(C)(C)CCC[C@]3(C)[C@H]21` the Activity was “inactive”.
For `CC1(C)CCC[C@]2(C)/C(=C/O)C(=O)CC[C@@H]12`, the Activity was “inactive”.
With `CO[C@@H]1O[C@H](O)[C@@]2(O)CC[C@H]3C(C)(C)CCC[C@]3(C)[C@@H]12` the Activity was “inactive”.
In the case of `CC1(C)CCC[C@]2(C)[C@H]3C(=O)OC[C@@H]3CC[C@@H]12`, the IC50 is reported as 113 µM.
